Reference: ChEMBL document CHEMBL1275564, “Minimal pharmacokinetic interaction between the human immunodeficiency virus nonnucleoside reverse transcriptase inhibitor etravirine and the integrase inhibitor raltegravir in healthy subjects” (Antimicrob Agents Chemother, 2008)

What was measured:
Assay type in all cases: ADME, organism-based
[1] = Trough drug concentration at 12 hrs in healthy human plasma at 400 mg, po twice a day for 4 days by reverse-phase HPLC-MS method; settings: read-out: Cmin
[2] = Trough drug concentration at 12 hrs in healthy human plasma at 400 mg, po twice a day for 4 days coadministered with 200mg of etravirine twice a day for 4 days by reverse-phase HPLC-MS method; settings: read-out: Cmin
[3] = AUC (0 to 12 hrs) in healthy human plasma at 400 mg, po twice a day for 4 days by reverse-phase HPLC-MS method; design: dose 400 mg, time < 12 hr, route oral
[4] = AUC (0 to 12 hrs) in healthy human plasma at 400 mg, po twice a day for 4 days coadministered with 200mg of etravirine twice a day for 4 days by reverse-phase HPLC-MS method; design: time < 12 hr, dose 400 mg, route oral
[5] = Cmax in healthy human plasma at 400 mg, po twice a day for 4 days by reverse-phase HPLC-MS method; design: dose 400 mg, route oral
[6] = Cmax in healthy human plasma at 400 mg, po twice a day for 4 days coadministered with 200mg of etravirine twice a day for 4 days by reverse-phase HPLC-MS method; design: dose 400 mg, route oral
[7] = Tmax in healthy human plasma at 400 mg, po twice a day for 4 days by reverse-phase HPLC-MS method
[8] = Tmax in healthy human plasma at 400 mg, po twice a day for 4 days coadministered with 200mg of etravirine twice a day for 4 days by reverse-phase HPLC-MS method
[9] = Trough drug concentration at 12 hrs in healthy human plasma at 200 mg, po twice a day for 8 days by reverse-phase HPLC-MS method; settings: read-out: Cmin
[10] = Trough drug concentration at 12 hrs in healthy human plasma at 200 mg, po twice a day for 4 days coadministered with 400 mg of raltegravir, po twice a day for 4 days by reverse-phase HPLC-MS method; settings: read-out: Cmin
[11] = test system: Homo sapiens; test: AUC (0 to 12 hrs) in healthy human plasma at 200 mg, po twice a day for 8 days by reverse-phase HPLC-MS method; design: time < 12 hr, dose 200 mg, route oral; settings: in vivo
[12] = test system: Homo sapiens; test: AUC (0 to 12 hrs) in healthy human plasma at 200 mg, po twice a day for 4 days coadministered with 400 mg of raltegravir, po twice a day for 4 days by reverse-phase HPLC-MS method; design: time < 12 hr, dose 200 mg, route oral; settings: in vivo
[13] = Cmax in healthy human plasma at 200 mg, po twice a day for 8 days by reverse-phase HPLC-MS method; design: dose 200 mg, route oral
[14] = Cmax in healthy human plasma at 200 mg, po twice a day for 4 days coadministered with 400 mg of raltegravir, po twice a day for 4 days by reverse-phase HPLC-MS method; design: dose 200 mg, route oral
[15] = Tmax in healthy human plasma at 200 mg, po twice a day for 8 days by reverse-phase HPLC-MS method
[16] = Tmax in healthy human plasma at 200 mg, po twice a day for 4 days coadministered with 400 mg of raltegravir, po twice a day for 4 days by reverse-phase HPLC-MS method

concentration at 12 h [1]	concentration at 12 h [2]	AUC at 12 h [3]	AUC at 12 h [4]	Cmax [5]	Cmax [6]	Tmax [7]	Tmax [8]	concentration at 12 h [9]	concentration at 12 h [10]	AUC [11]	AUC [12]	Cmax [13]	Cmax [14]	Tmax [15]	Tmax [16]	SMILES
0.216 µM	0.142 µM	7.01 µM·h	6.28 µM·h	1.74 µM	1.54 µM	1.5 h	3 h	–	–	–	–	–	–	–	–	Cc1nnc(C(=O)NC(C)(C)c2nc(C(=O)NCc3ccc(F)cc3)c(O)c(=O)n2C)o1 [RALTEGRAVIR]
–	–	–	–	–	–	–	–	0.373 µg/mL	0.439 µg/mL	6.22 µg·h/mL	6.81 µg·h/mL	0.734 µg/mL	0.766 µg/mL	4 h	4 h	Cc1cc(C#N)cc(C)c1Oc1nc(Nc2ccc(C#N)cc2)nc(N)c1Br [ETRAVIRINE]
